Measured values from ChEMBL document CHEMBL1201862, “PubChem BioAssay data set” (2004).
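Interpolation was linear, between the two tested concentrations surrounding the appropriate level; five concentrations were tested over 48 hours in 96-well plates. GI50: concentration for 50% inhibition of growth.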 The source made the active and inactive calls. Rule as the data show it: active = GI50 up to about 1.1 µM and inactive = higher.

Legend:
Test in all cases: growth of human tumour cells (NCI), 48 h
[1] = system: SN12C
[2] = system: M14
[3] = system: SK-MEL-28
[4] = system: TK-10
[5] = system: HCC 2998
[6] = system: SNB-19
[7] = system: HL-60
[8] = system: OVCAR-8
[9] = system: UO-31
[10] = system: KM12
[11] = system: HOP-62
[12] = system: CCRF-CEM
[13] = system: MOLT-4
[14] = system: U-251
[15] = system: ACHN
[16] = system: HCT-116
[17] = system: SK-OV-3

Measured: GI50

CCCCOC(=O)NC(=O)c1cn(CCCOC(=O)CCCCCCCCC(=O)OCCCn2cc(C(=O)NC(=O)OCCCC)c(=O)n(C)c2=O)c(=O)n(C)c1=O
inactive: [1] > 100 µM | [2] > 100 µM | [3] > 100 µM | [4] > 100 µM | [5] > 100 µM | [6] > 100 µM | [7] > 100 µM | [8] > 100 µM | [9] > 100 µM | [10] > 100 µM | [11] > 100 µM | [12] > 100 µM | [13] > 100 µM | [14] > 100 µM | [15] > 100 µM | [16] > 100 µM

CC/C=C/c1cc2c(c3[nH]ccc13)[C@@H](C)CC2C.CC/C=C/c1cc2cc[nH]c2c2c1C(C)C[C@@H]2C.CCc1cc2c(c3[nH]ccc13)[C@@H](C)CC2C (stereo partly drawn)
inactive: [1] 15.1 µM | [2] 13.5 µM | [3] 15.7 µM | [4] 22.1 µM | [5] 3.08 µM | [6] 19.2 µM | [7] 18.3 µM | [8] 17.2 µM | [9] 16.6 µM | [10] 16.8 µM | [11] 16.3 µM | [14] 18 µM | [15] 16.2 µM | [16] 18.5 µM

CCOC(=O)C(C)Sc1nnc(COc2ccccc2OC)n1-c1ccccc1 (stereo not drawn)
inactive: [1] > 100 µM | [2] > 100 µM | [3] > 100 µM | [4] > 100 µM | [5] 29.1 µM | [6] > 100 µM | [7] 32.8 µM | [17] > 100 µM | [8] > 100 µM | [9] > 100 µM | [10] > 100 µM | [11] > 100 µM | [12] 53.7 µM | [14] > 100 µM | [15] > 100 µM | [16] 80.7 µM

Cc1nc(C(=O)O)c2ccccc2n1
inactive: [1] > 100 µM | [3] > 100 µM | [4] > 100 µM | [5] > 100 µM | [6] > 100 µM | [7] > 100 µM | [17] > 100 µM | [8] > 100 µM | [9] > 100 µM | [10] > 100 µM | [12] > 100 µM | [13] > 100 µM | [14] > 100 µM | [15] > 100 µM | [16] > 100 µM

CC(=O)OCc1ncccc1C(OC(C)=O)OC(C)=O
inactive: [1] > 100 µM | [2] > 100 µM | [3] > 100 µM | [4] > 100 µM | [6] > 100 µM | [7] > 100 µM | [17] > 100 µM | [8] > 100 µM | [9] > 100 µM | [10] > 100 µM | [11] > 100 µM | [12] > 100 µM | [13] > 100 µM | [14] > 100 µM | [15] > 100 µM | [16] > 100 µM

Cc1nc(-c2ccccc2)cc2c1c(=O)oc1ccccc12
inactive: [1] > 100 µM | [2] > 100 µM | [3] > 100 µM | [5] > 100 µM | [6] > 100 µM | [7] > 100 µM | [17] > 100 µM | [8] > 100 µM | [9] > 100 µM | [10] > 100 µM | [11] > 100 µM | [12] > 100 µM | [13] > 100 µM | [14] > 100 µM | [15] > 100 µM | [16] > 100 µM

CC1CCC2[C@@H](C)COC3O[C@]4(C)CCC1C32OO4 (stereo partly drawn)
inactive: [1] > 100 µM | [2] > 100 µM | [3] > 100 µM | [4] > 100 µM | [5] > 100 µM | [6] > 100 µM | [17] > 100 µM | [8] > 100 µM | [9] 54.1 µM | [10] > 100 µM | [11] > 100 µM | [12] 5.15 µM | [14] > 100 µM | [15] > 100 µM | [16] > 100 µM
